Reference: ChEMBL document CHEMBL6127056, “Novel mechanistic insights - A brand new Era for anti-HBV drugs” (Eur J Med Chem, 2024)
pEC50, pIC50: −log10 of the molar value. Converted amounts (≈) assume the structure as drawn. Blank lines part the entries; values can stand above or below the molecule they belong to.

Experiments:
[1] = target: Triosephosphate isomerase (Homo sapiens, UniProt P60174); test: Inhibition of TPI1 (unknown origin)
[2] = Inhibition of HBV RNA polymerase; design: species or system Hepatitis B virus
Hepatitis B virus [3] = test: Antiviral activity against Hepatitis B virus assessed as inhibition of HBV DNA replication; format: functional, organism-based
Hepatitis B virus [4] = test: Antiviral activity against HBV infected in human HepDES19 cells assessed as inhibition of extracellular HBV DNA by qPCR analysis; format: functional, organism-based
Hepatitis B virus [5] = test: Antiviral activity against HBV infected in human HepG2.2.15 cells; format: functional, organism-based
HepG2 2.2.15 = test: Cytotoxicity against human HepG2.2.15 cells assessed as reduction in cell viability by CellTiter-Blue reagent based analysis; format: functional
Hepatitis B virus [6] = test: Antiviral activity against HBV infected in human HepG2.2.15 cells assessed as reduction in viral DNA levels incubated for 6 days by PCR analysis; format: functional, organism-based; details: HepG2.2.15, 144 h
[7] = target: Human immunodeficiency virus type 1 reverse transcriptase (Human immunodeficiency virus 1, UniProt Q72547); test: Inhibition of HIV-1 reverse transcriptase
Hepatitis B virus [8] = test: Antiviral activity against HBV infected in human Primary hepatocyte assessed as reduction in HBV replication; format: functional, organism-based
[9] = target: T1, NAD-dependent protein deacetylase sirtuin-2 (Homo sapiens, UniProt Q8IXJ6); test: Inhibition of SIRT2 (unknown origin)
T1 sequence (Q8IXJ6 whole entry): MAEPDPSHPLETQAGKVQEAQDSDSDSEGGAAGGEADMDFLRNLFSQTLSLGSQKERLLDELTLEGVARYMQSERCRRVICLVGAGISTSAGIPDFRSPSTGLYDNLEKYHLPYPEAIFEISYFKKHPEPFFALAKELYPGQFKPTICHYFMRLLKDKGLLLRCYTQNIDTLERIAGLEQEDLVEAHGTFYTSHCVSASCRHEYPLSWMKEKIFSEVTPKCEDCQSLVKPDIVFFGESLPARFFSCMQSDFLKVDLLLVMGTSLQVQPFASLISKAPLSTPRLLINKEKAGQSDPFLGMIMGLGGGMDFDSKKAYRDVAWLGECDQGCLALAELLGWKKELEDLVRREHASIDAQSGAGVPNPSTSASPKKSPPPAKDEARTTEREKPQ

Triosephosphate isomerase, sequence (P60174 whole entry): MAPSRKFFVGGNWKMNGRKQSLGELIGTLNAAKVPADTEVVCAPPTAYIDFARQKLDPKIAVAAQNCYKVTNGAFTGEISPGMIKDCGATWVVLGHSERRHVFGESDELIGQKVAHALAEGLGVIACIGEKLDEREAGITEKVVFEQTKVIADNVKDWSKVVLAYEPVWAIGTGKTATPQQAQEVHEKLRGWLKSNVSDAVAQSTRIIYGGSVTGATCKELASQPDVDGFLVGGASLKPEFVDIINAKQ

Structure (SMILES): C[C@]12CCCC[C@@H]1CC[C@@H]1[C@@H]2CC[C@]2(C)[C@@H]([C@H](O)CCc3ccc(F)cc3)CC[C@@H]12
pIC50 [1]: 4.98

Structure (SMILES): N#Cc1ccc(Cn2nc(-c3ccc(C(F)(F)F)nc3F)c3ccccc3c2=O)cc1
pIC50 (HepG2 2.2.15): 6.70

Structure (SMILES): O=C(Nc1ccc(F)c(C(F)F)c1)C1c2ccccc2NCC1CN1CCC(F)(F)CC1 (stereo not drawn)
pEC50 (Hepatitis B virus [6]): 7.00

Structure (SMILES): Nc1ncnc2c1ncn2[C@@H]1OC[C@](F)(COP(=O)(O)OP(=O)(O)OP(=O)(O)O)[C@H]1CO
pIC50 [7]: 6.49

Structure (SMILES): CC[C@H](C)C[C@H](C)C(=O)O[C@]1(C)C(=O)c2c(cc(O)c3c2C[C@@H](O)C[C@H]3C)[C@@](C)(O)C1=O
pIC50 [1]: 6.21

Structure (SMILES): O=C(O)C1CC(OCCOc2ccc(-c3cc(=O)c4cccc(Cl)c4o3)cc2)C1 (stereo not drawn)
pEC50 (Hepatitis B virus [8]): 6.70

Structure (SMILES): Cc1cc(N)c(S(N)(=O)=O)cc1C(=O)Nc1cc(F)c(F)c(F)c1
pEC50 (Hepatitis B virus [6]): 7.22

Structure (SMILES): O=c1cc(-c2ccccc2)oc2cc(O)cc(O)c12 [CHRYSIN]
pEC50 (Hepatitis B virus [8]): 4.65

Structure (SMILES): NCCCC(=O)NCc1nc(-c2cccc(F)c2)c(-c2ccccn2)[nH]1
pEC50 (Hepatitis B virus [3]): < 5.00

Structure (SMILES): C[C@]12CC[C@@H]3c4ccc(OC(=O)c5ccccc5)cc4CC[C@H]3[C@@H]1CC[C@@H]2O [ESTRADIOL BENZOATE]
pIC50 [2]: 3.55

Structure (SMILES): CCOC(=O)C1=C(CN2CCOCC2)NC(c2nccs2)=NC1c1ccc(F)cc1Br (stereo not drawn)
pEC50 (Hepatitis B virus [4]): 7.00

Structure (SMILES): CCCCCCCCCc1cc(OC(=O)c2c(CCCCCCCCC)cc(O)cc2O[C@@H]2O[C@H](CO)[C@@H](O)[C@H](O)[C@H]2O)cc(O)c1C(=O)O
pIC50 [1]: 5.96

Now from value to molecule:

pIC50 [2]: 5.72
Structure (SMILES): O=C(Nc1ccc2c(=O)c3cccc(F)c3oc2c1)c1ccccc1

pEC50 (Hepatitis B virus [3]): 5.68
Structure (SMILES): C/C(=N\c1cccc(F)c1)c1c(C)cc(=O)n(O)c1O

pEC50 (Hepatitis B virus [4]): < 5.00
Structure (SMILES): CCOC(=O)C1=C(CN2CCN(C(C(=O)O)c3ccoc3)CC2)NC(c2nccs2)=NC1c1ccc(F)cc1Br (stereo not drawn)

EC50 (Hepatitis B virus [5]): 56.4 µg/mL (≈ 97.2 µM)
Structure (SMILES): COc1ccc(-c2cc(=O)c3c(O)cc(O)c(-c4cc(-c5cc(=O)c6c(O)cc(OC)cc6o5)ccc4OC)c3o2)cc1 [SCIADOPITISIN]

pEC50 (Hepatitis B virus [3]): < 5.00
Structure (SMILES): O=C(NCc1ccc(-c2cccnc2)nc1)c1ccc2nccnc2c1

pIC50 [1]: 5.66
Structure (SMILES): CCCCCCCc1cc(OC(=O)c2c(CCCCCCC)cc(O)cc2O[C@H]2O[C@@H](CO)[C@@H](O)[C@@H](O)[C@@H]2O)cc(O)c1C(=O)O

pIC50 [1]: 5.77
Structure (SMILES): CCCCCCCc1cc(OC(=O)c2c(CCCCCCC)cc(O)cc2O[C@H]2O[C@@H](CO)[C@H](O)[C@@H](O)[C@@H]2O)cc(O)c1C(=O)O

pEC50 (Hepatitis B virus [3]): < 5.00
Structure (SMILES): CCOC(=O)c1cc(-c2cc(C(=O)OCC)c3ccccc3n2)nc2ccccc12

pEC50 (Hepatitis B virus [3]): < 5.00
Structure (SMILES): O=C(OCc1ccc(-c2cnc3ccccc3n2)cc1)c1cccs1

pIC50 [1]: 5.72
Structure (SMILES): C=C(c1ccc(C(=O)O)cc1)c1cc2c(cc1C)C(C)(C)CCC2(C)C [BEXAROTENE]

pIC50 [9]: > 6.21
Structure (SMILES): Cc1cn(-c2ccc3c(c2)CN(c2ncc(Cc4ccc(-n5cccn5)cc4)s2)CC3)c(C)n1
